tested on: mold; assay: Mold growth on white bread loaves (Dough Formulation A) coated with antimicrobial powders, Example 1
Method: All of the ingredients except for the salt were added to a 20 qt Hobart mixer, and mixed with a spiral hook on the 1st speed setting (low) for two minutes. […] The salt was added, followed by mixing at the 2nd speed setting for an additional 3 minutes until full dough development. […] Next, a Gemini Straight Grain Moulder was used, according to the settings in Table 4 below, to sheet and mould the dough pieces. The shaped dough pieces were then evenly coated with 2 grams of various antimicrobial powders containing different antimicrobial agents, as described below, and then placed into 1-lb loaf pans. […] After baking, the loaves were removed from the oven and […]. The loaves were cooled on wire racks for 1 hour and then bagged in poly bags with twist ties. […] Each of the antimicrobial powders used above was prepared by adding the ingredients in the tables below to a 5 qt Hobart mixer and blending with a paddle attachment for 10 minutes.

Compound | Mold Inhibition
CCC(=O)[O-].CCC(=O)[O-].[Ca+2] [Calcium Propionate] | Slightly Effective
O=C(O)/C=C/C(=O)O [Fumaric Acid] | Slightly Effective
C[C@@H]1C/C=C/C=C/C=C/C=C/[C@H](O[C@@H]2O[C@H](C)[C@@H](O)[C@H](N)[C@@H]2O)C[C@@H]2O[C@](O)(C[C@@H](O)C[C@H]3O[C@@H]3/C=C/C(=O)O1)C[C@H](O)[C@H]2C(=O)O [Natamycin, reference compound] | Effective
C/C=C/C=C/C(=O)[O-].[K+] [Potassium Sorbate] | Effective
O=C([O-])c1ccccc1.[Na+] [Sodium Benzoate] | Moderately Effective
CC(=O)O.CC(=O)[O-].[Na+] [Sodium Diacetate] | Moderately Effective
CCC(=O)[O-].[Na+] [Sodium Propionate] | Moderately Effective
C/C=C/C=C/C(=O)O [Sorbic Acid] | Effective
Polylysine | Moderately Effective
